From BindingDB's records for doi:10.1016/j.bmc.2013.04.067 (Chinese Academy of Sciences, 2013) come the findings set out here.

This data set is described as follows: Inhibition of p-gp in human KB/VCR cells assessed as potentiation of 100 nM docetaxel-induced cytotoxicity after 72 hrs by MTT assay. In general terms: Tetrazolium dyes change colour on reduction, which living cells bring about.

As to `CC1(C)[C@@H](O)CC[C@]2(C)[C@H]3C[C@@H](O)[C@@H]4[C@@H]([C@@](C)(O)CCCNCCc5ccccc5)CC[C@@]4(C)[C@]3(C)CC[C@@H]12`, the concentration giving a half-maximal response (EC50) stood at 1310 nM. To `CC1(C)[C@@H](O)CC[C@]2(C)[C@H]3C[C@@H](O)[C@@H]4[C@@H]([C@@](C)(O)CCCNCc5ccccc5)CC[C@@]4(C)[C@]3(C)CC[C@@H]12` belongs 1370 nM.

For orientation: EC50 means the concentration giving half of the maximal effect.
